Legend:
Format in all cases: protein-complex assay
[1] = target: Integrin alpha-V/beta-3 (Homo sapiens) (UniProt P05106+P06756); assay: Binding to Vitronectin receptor (alphaV-beta3) of PMA stimulated human-derived B lymphocyte on vitronectin coated microtiter plates
[2] = target: Integrin alpha-V/beta-5 (Homo sapiens) (UniProt P06756+P18084); assay: Binding to Vitronectin receptor (alphaV-beta5) coated microtiter plates
[3] = target: Integrin alpha-IIb/beta-3 (Homo sapiens) (UniProt P05106+P08514); assay: Binding to IIb/IIIa on vitronectin coated microtiter plates in ELISA
[4] = target: Fibronectin receptor (Integrin alpha-5/beta-1 and alpha-V/beta-3) (Homo sapiens) (UniProt P05106+P05556+P06756+P08648); assay: Binding to Fibronectin receptor on vitronectin coated microtiter plates
Sequence of Fibronectin receptor (Integrin alpha-5/beta-1 and alpha-V/beta-3) (Homo sapiens) (P05106 whole entry, looked up): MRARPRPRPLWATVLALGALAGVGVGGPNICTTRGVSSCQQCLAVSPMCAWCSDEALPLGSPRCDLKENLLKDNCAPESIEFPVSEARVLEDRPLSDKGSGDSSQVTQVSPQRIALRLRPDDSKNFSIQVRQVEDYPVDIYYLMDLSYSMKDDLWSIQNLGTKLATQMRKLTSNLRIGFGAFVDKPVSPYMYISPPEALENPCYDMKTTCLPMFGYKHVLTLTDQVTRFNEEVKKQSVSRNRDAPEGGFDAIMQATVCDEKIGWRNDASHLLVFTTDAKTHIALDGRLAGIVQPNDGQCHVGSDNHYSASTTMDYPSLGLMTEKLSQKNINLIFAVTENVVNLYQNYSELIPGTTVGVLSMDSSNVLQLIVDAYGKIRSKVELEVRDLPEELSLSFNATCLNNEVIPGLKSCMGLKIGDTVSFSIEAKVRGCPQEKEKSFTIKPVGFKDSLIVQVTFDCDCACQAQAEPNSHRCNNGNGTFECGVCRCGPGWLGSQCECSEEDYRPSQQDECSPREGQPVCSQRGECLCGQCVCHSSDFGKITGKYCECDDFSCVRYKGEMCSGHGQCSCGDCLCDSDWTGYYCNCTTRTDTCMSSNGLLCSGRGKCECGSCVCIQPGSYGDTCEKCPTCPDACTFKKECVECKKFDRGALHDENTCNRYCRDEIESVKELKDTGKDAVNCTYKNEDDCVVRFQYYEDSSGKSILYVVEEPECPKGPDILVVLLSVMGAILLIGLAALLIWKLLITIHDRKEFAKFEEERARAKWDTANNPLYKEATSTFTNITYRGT
Sequence of Fibronectin receptor (Integrin alpha-5/beta-1 and alpha-V/beta-3) (Homo sapiens) (P05556 whole entry, looked up): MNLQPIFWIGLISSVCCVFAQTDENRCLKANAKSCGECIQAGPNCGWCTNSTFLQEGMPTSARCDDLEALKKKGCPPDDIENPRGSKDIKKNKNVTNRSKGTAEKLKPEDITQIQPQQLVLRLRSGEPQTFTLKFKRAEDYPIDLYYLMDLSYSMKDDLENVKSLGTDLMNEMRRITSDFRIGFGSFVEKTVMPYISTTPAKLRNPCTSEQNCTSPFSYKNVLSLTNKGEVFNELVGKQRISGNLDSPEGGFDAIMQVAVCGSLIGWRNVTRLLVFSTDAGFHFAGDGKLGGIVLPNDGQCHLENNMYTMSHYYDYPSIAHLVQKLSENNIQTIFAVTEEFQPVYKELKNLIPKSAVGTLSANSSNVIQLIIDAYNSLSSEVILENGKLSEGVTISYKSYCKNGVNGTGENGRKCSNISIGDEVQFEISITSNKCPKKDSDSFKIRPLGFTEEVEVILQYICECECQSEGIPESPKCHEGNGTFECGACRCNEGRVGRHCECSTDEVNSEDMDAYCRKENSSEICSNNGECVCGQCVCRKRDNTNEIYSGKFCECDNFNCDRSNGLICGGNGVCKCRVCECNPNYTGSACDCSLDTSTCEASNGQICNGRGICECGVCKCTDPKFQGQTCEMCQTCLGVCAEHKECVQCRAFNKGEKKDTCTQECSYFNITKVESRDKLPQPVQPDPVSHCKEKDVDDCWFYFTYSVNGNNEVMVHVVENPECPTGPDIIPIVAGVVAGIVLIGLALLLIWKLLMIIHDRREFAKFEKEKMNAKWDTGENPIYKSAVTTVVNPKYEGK
Sequence of Fibronectin receptor (Integrin alpha-5/beta-1 and alpha-V/beta-3) (Homo sapiens) (P06756 whole entry, looked up): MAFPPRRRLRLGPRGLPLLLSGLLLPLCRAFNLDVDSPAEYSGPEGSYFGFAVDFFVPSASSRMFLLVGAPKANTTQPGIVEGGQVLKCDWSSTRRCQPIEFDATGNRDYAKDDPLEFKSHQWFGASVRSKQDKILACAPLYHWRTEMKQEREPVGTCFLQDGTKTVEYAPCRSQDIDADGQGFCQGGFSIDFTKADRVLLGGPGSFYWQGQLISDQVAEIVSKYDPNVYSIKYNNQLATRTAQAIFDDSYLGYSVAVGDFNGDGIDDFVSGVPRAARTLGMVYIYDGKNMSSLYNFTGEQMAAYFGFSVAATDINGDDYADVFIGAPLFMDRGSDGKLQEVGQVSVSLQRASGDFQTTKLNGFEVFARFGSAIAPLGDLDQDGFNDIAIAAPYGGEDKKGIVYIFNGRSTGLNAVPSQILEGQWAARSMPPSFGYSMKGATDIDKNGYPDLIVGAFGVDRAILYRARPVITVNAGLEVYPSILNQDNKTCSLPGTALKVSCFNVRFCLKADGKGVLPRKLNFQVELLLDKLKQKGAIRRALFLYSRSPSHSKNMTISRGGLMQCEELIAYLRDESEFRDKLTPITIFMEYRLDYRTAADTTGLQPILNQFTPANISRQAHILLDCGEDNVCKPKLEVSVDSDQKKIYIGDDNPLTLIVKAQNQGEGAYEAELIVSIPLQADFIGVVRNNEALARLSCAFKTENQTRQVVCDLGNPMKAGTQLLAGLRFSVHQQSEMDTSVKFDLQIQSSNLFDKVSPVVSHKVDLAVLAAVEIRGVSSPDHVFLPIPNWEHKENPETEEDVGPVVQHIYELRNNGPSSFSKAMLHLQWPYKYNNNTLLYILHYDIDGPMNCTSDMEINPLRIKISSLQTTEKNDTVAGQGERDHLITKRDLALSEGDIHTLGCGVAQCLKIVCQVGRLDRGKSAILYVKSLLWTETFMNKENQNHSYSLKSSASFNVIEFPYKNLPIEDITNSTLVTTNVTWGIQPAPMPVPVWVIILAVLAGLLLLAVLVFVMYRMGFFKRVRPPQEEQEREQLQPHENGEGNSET
Sequence of Fibronectin receptor (Integrin alpha-5/beta-1 and alpha-V/beta-3) (Homo sapiens) (P08648 whole entry, looked up): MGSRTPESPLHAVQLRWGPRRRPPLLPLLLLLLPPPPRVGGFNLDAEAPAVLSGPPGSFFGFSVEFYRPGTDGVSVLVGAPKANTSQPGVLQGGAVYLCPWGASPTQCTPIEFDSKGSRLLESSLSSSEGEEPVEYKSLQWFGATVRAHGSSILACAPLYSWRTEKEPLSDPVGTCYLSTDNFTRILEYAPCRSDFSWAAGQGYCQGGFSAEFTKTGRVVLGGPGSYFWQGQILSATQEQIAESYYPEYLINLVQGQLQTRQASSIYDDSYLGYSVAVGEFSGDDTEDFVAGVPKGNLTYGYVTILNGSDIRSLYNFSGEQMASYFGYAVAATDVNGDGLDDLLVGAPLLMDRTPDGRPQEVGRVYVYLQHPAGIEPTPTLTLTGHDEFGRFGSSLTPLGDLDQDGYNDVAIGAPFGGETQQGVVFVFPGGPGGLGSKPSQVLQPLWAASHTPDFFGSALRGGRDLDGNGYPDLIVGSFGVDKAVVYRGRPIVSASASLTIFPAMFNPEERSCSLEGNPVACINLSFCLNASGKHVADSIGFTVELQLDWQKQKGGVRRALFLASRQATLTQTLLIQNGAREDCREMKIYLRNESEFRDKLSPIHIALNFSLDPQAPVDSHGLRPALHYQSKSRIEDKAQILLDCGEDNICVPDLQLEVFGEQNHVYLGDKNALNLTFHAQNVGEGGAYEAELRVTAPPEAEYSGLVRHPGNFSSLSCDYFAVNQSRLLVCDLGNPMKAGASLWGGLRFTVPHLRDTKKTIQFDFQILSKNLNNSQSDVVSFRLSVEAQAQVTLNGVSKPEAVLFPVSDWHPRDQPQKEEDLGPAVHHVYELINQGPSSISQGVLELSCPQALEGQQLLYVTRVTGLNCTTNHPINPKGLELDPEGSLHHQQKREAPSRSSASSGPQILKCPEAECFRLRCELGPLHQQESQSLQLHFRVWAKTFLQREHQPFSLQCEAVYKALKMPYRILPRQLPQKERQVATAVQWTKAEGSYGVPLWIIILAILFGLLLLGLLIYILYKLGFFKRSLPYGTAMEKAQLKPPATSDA

Binding activity [1]: 50 µM
Binding activity [2]: 0.582 µM
Binding activity [3]: 0.8 µM
Binding activity [4]: 0.02 µM
SMILES: NCC(=O)N[C@@H](CCCN=C(N)N)C(=O)NCC(=O)N[C@@H](CC(=O)O)C(=O)N[C@@H](CO)C(=O)N1CCC[C@H]1C(=O)O

Source: ChEMBL document CHEMBL1129915, “A novel RGD containing dodecapeptidomimetic which exhibits selective binding to the v3 receptor” (Bioorg Med Chem Lett, 1997)
